In patent US4021563A, “Method of treating cardiac arrhythmia with γ-piperidino-butyrophenones” (priority 1975, dated 1977):
“Also recorded” adds a separate entry of the source. Where a name gives a salt, the structure may show the parent alone.

Key:
[1] = test system: ouabain-induced arrhythmias; experiment: ouabain-induced arrhythmia in conscious rabbits, prophylactic effect; type: in vivo, rabbit; details: for arrhythmogenic dose of ouabain increased to more than 110 %, number of rabbits: 1 minute before ouabain; for arrhythmogenic dose of ouabain in % of control arrhythmogenic dose, m ± SD: physiol. saline 96 ± 14; for antiarrhythmic activity compared with clinically used drugs: prophylactic and curative effect
Description: (§1) Thus, acid-addition salts formed by admixture of a γ-piperidino-butyrophenone base with an equivalent of an acid, suitably in a neutral solvent, are formed with such acids as sulfuric, phosphoric, hydrochloric, hydrobromic, citric, lactic, tartaric, acetic, and related acids. For purposes of this invention, the substituted γ-piperidino-butyrophenones are equivalent to their non-toxic acid-addition salts. The antiarrhythmic activity of the compounds of the present invention compared with that of some clinically used antiarrhythmic drugs was determined as follows.
(§2) Intravenous infusion of ouabain to conscious rabbits produces ventricular arrhythmias of short duration. An increase in the minimal dose of ouabain required to produce an arrhythmia may be taken as a measure of the antiarrhythmic action of the drug.
In all experiments with drug treatment the control dose of ouabain required to produce arrhythmias in an animal was obtained the day before.
The test compound was administered intravenously to rabbits 1 minute before the ouabain challenge, and the arrhythmogenic dose of ouabain after treatment was evaluated in percent of the control arrhythmogenic dose. If this dose amounts to more the 110 % of the control arrhythmogenic dose recorded the day before, the test compound is regarded as having antiarrhymic activity.

[2] = test system: ouabain-induced arrhythmia; experiment: ouabain-induced arrhythmia in conscious rabbits, curative effect (reversal); type: in vivo, rabbit; details: reversal at least 1 min within 10 minutes
Description: as §1, §2
A substance was considered curative, if it was able to reverse the ouabain-induced arrhythmia for at least 1 min. within 10 minutes after the injection.

[3] = test system: cardiac arrhythmia; details: cited from earlier work
[4] = toxic effects of active doses in antiarrhythmic tests
Description: as §1, with “follows. The compounds were tested for their ability to prevent and reverse ouabain-induced arrhythmias in conscious rabbits, and the method used was essentially according to Basil et al. (Brit. J. Pharmacol. 1974, 50, 323- 33).” for “follows.”

[5] = test system: cardiac effects of catecholamines; details: Tuck 1973; Petersen 1974; cited from earlier work
[6] = test system: ventricular extrasystoles (VES); experiment: double-blind clinical test, ventricular extrasystoles in coronary care unit patients; type: in vivo, human patients
Protocol: All patients with ventricular extrasystoles (VES) admitted to a coronary care unit suspected of having acute myocardial infarction are included in the investigation. This was carried out in a double-blind manner with metylperone against placebo (metylperone injectable without metylperone). When a patient arrives at the unit, they are monitored on an oscilloscope for registration of the electrocardiogram (ECG). In a 1 hour long period of observation the patient is characterized in respect to the type and the frequency of the arrhythmia. Depending on this and on the estimated age of the infarction, the patient is distributed to one of four groups. A bottle (metylperone or placebo) is chosen from a box, containing identical bottles, and in the following 10 minutes a total of 50 mg metylperone (or placebo) is injected intravenously as 5 injections with 2 min. intervals. The ECG registration is continued for 2 hours. All ECGes in the three hours period are analyzed manually and the arrhythmias are recorded according to frequency and type. The psychic status and the cardiovascular status are checked several times during the three hours.

[7] = test system: ventricular arrhythmia; experiment: intravenous metylperone in patients with myocardial infarction, ventricular arrhythmia and side effects; type: in vivo, human patients
Description: Equi-antiarrhythmic doses of previously used drugs produce various cardiovascular side effects as well as agitation and confusion.

[8] = tranquilizing effect; details: in vivo
[9] = test system: arrhythmia induced by aconitine; experiment: aconitine-induced arrhythmia; type: in vivo; details: 0.1-10.0 mg/kg
[10] = test system: ouabain-induced ventricular tachycardia and fibrillation; details: anaesthetized guinea pigs, effective dosage; cited from earlier work
[11] = test system: arrhythmia induced by aconitine; details: in vivo; cited from earlier work

With `CC(C)NCC(O)COc1cccc2ccccc12` (stereo not shown) [Propranolol, propranolol] the “arrhythmogenic dose of ouabain increased to more than 110 %, number of rabbits” value ([1]; 0.5 mg/kg i.v., 4 rabbits) was 2 number of rabbits, the “arrhythmogenic dose of ouabain in % of control arrhythmogenic dose, m ± SD” value (“arrhythmogenic dose of ouabain in % … m ± SD” for short) ([1]; 0.5 mg/kg i.v.) was 98 ± 28 % of control arrhythmogenic do and the “arrhythmogenic dose of ouabain increased to more than 110 %, number of rabbits” value ([1]; 2.0 mg/kg i.v., 4 rabbits) was 3 number of rabbits. For the same molecule, the “arrhythmogenic dose of ouabain in % … m ± SD” value ([1]; 2.0 mg/kg i.v.) was 121 ± 26 % of control arrhythmogenic do, the “curative effect, number of rabbits reversed/tested” value ([2]; 0.5 mg/kg i.v.) was 1/5 and the “curative effect, number of rabbits reversed/tested” value ([2]; 2.0 mg/kg i.v.) was 4/4. The “antiarrhythmic properties / activity of prior art compounds” value (from here on “antiarrhythmic properties / activity”) [3] was “activity as antiarrhythmic agents” and the “toxic effects of prior art antiarrhythmic drugs” value [3] was “various toxic effects”.

With `CCCC1(CC)CCN(CCCC(=O)c2ccc(F)cc2)CC1` [FG 5226, 4-fluoro-γ-(4-ethyl-4-n-propyl-piperidino)-butyrophenone] the “arrhythmogenic dose of ouabain increased to more than 110 %, number of rabbits” value ([1]; 0.1 mg/kg i.v., 4 rabbits) was 3 number of rabbits, the “arrhythmogenic dose of ouabain in % … m ± SD” value ([1]; 0.1 mg/kg i.v.) was 109 ± 21 % of control arrhythmogenic do and the “antiarrhythmic activity compared with clinically used drugs” value ([1]; 0.1 mg/kg i.v.) was “more effective than lidocaine 1-5 mg/kg, procainamide 1- 10 mg/kg, quinidine 1 mg/kg, and propranolol 0.5 mg/kg; also recorded: equiactive (i.e., equally active) with quinidine 10 mg/kg, and propranolol 2 mg/kg”. For the same molecule, the “arrhythmogenic dose of ouabain increased to more than 110 %, number of rabbits” value ([1]; 1.0 mg/kg i.v., 4 rabbits) was 1 number of rabbits, the “arrhythmogenic dose of ouabain in % … m ± SD” value ([1]; 1.0 mg/kg i.v.) was 93 ± 18 % of control arrhythmogenic do and the “curative effect, number of rabbits reversed/tested” value ([2]; 0.1 mg/kg i.v.) was 3/4. For the same molecule, the “curative effect, number of rabbits reversed/tested” value ([2]; 1.0 mg/kg i.v.) was 2/4 and the “toxic effects of the active doses” value ([4]; active antiarrhythmic doses) was “In contrast to metylperone and FG 5226 the active doses of the known antiarrhythmic drugs produced various toxic effects”.

With `CCN(CC)CCNC(=O)c1ccc(N)cc1` [Procainamide, procainamide] the “arrhythmogenic dose of ouabain increased to more than 110 %, number of rabbits” value ([1]; 1.0 mg/kg i.v., 4 rabbits) was 2 number of rabbits, the “arrhythmogenic dose of ouabain in % … m ± SD” value ([1]; 1.0 mg/kg i.v.) was 111 ± 18 % of control arrhythmogenic do and the “arrhythmogenic dose of ouabain increased to more than 110 %, number of rabbits” value ([1]; 10.0 mg/kg i.v., 4 rabbits) was 1 number of rabbits. For the same molecule, the “arrhythmogenic dose of ouabain in % … m ± SD” value ([1]; 10.0 mg/kg i.v.) was 104 ± 20 % of control arrhythmogenic do, the “curative effect, number of rabbits reversed/tested” value ([2]; 1.0 mg/kg i.v.) was 0/4 and the “curative effect, number of rabbits reversed/tested” value ([2]; 10.0 mg/kg i.v.) was 2/4. For the same molecule, the “antiarrhythmic properties / activity” value [3] was “activity as antiarrhythmic agents” and the “toxic effects of prior art antiarrhythmic drugs” value [3] was “various toxic effects”.

In the case of `CN(C)CCCN1c2ccccc2Sc2ccc(Cl)cc21` [chlorpromazine], the potentiation of catecholamines [5] is given as “potentiation of catecholamines”.

With `C=C[C@H]1C[N@@]2CC[C@H]1C[C@@H]2[C@@H](O)c1ccnc2ccc(OC)cc12` [Quinidine, quinidine] the “arrhythmogenic dose of ouabain increased to more than 110 %, number of rabbits” value ([1]; 1.0 mg/kg i.v., 4 rabbits) was 2 number of rabbits, the “arrhythmogenic dose of ouabain in % … m ± SD” value ([1]; 1.0 mg/kg i.v.) was 104 ± 10 % of control arrhythmogenic do and the “arrhythmogenic dose of ouabain increased to more than 110 %, number of rabbits” value ([1]; 10.0 mg/kg i.v., 4 rabbits) was 3 number of rabbits. For the same molecule, the “arrhythmogenic dose of ouabain in % … m ± SD” value ([1]; 10.0 mg/kg i.v.) was 131 ± 42 % of control arrhythmogenic do, the “curative effect, number of rabbits reversed/tested” value ([2]; 1.0 mg/kg i.v.) was 2/4 and the “curative effect, number of rabbits reversed/tested” value ([2]; 10.0 mg/kg i.v.) was 4/4. For the same molecule, the “antiarrhythmic properties / activity” value [3] was “activity as antiarrhythmic agents” and the “toxic effects of prior art antiarrhythmic drugs” value [3] was “various toxic effects”.

For `CCN(CC)CC(=O)Nc1c(C)cccc1C` [Lidocaine, lidocaine], the “arrhythmogenic dose of ouabain increased to more than 110 %, number of rabbits” value ([1]; 1.0 mg/kg i.v., 4 rabbits) was 0 number of rabbits, the “arrhythmogenic dose of ouabain in % … m ± SD” value ([1]; 1.0 mg/kg i.v.) was 73 ± 25 % of control arrhythmogenic do and the “arrhythmogenic dose of ouabain increased to more than 110 %, number of rabbits” value ([1]; 5.0 mg/kg i.v., 5 rabbits) was 0 number of rabbits. For the same molecule, the “arrhythmogenic dose of ouabain in % … m ± SD” value ([1]; 5.0 mg/kg i.v.) was 91 ± 21 % of control arrhythmogenic do, the “curative effect, number of rabbits reversed/tested” value ([2]; 1.0 mg/kg i.v.) was 1/3 and the “curative effect, number of rabbits reversed/tested” value ([2]; 5.0 mg/kg i.v.) was 2/4.

For `CC1CCN(CCCC(=O)c2ccc(F)cc2)CC1` [Metylperone, 4-fluoro-γ-(4-methyl-piperidino)-butyrophenone hydrochloride], the “activity against ouabain-induced ventricular tachycardia in conscious rabbits” value ([1]; 0.1 mg/kg) was “extremely active”, the “arrhythmogenic dose of ouabain increased to more than 110 %, number of rabbits” value ([1]; 0.1 mg/kg i.v., 4 rabbits) was 3 number of rabbits and the “arrhythmogenic dose of ouabain in % … m ± SD” value ([1]; 0.1 mg/kg i.v.) was 129 ± 20 % of control arrhythmogenic do. For the same molecule, the “antiarrhythmic activity compared with clinically used drugs” value ([1]; 0.1 mg/kg i.v., hydrochloride) was “more effective than lidocaine 1-5 mg/kg, procainamide 1- 10 mg/kg, quinidine 1 mg/kg, and propranolol 0.5 mg/kg; also recorded: equiactive (i.e., equally active) with quinidine 10 mg/kg, and propranolol 2 mg/kg”, the “arrhythmogenic dose of ouabain increased to more than 110 %, number of rabbits” value ([1]; 1.0 mg/kg i.v., 4 rabbits) was 3 number of rabbits and the “arrhythmogenic dose of ouabain in % … m ± SD” value ([1]; 1.0 mg/kg i.v.) was 126 ± 30 % of control arrhythmogenic do. For the same molecule, the “curative effect, number of rabbits reversed/tested” value ([2]; 0.1 mg/kg i.v.) was 5/5, the “curative effect, number of rabbits reversed/tested” value ([2]; 1.0 mg/kg i.v.) was 5/5 and the “antiarrhythmic effect in patients with acute myocardial infarction” value ([6]; 50 mg i.v.) was “has an antiarrhythmic effect in patients with acute myocardial infarction”. For the same molecule, the “mean total VES ± SD, 0 - 60 min. after inj.” value ([6]; AMI patients, N = 6, 50 mg i.v., placebo 418 ± 394) was 212 ± 138, the “mean total VES ± SD, 61 - 120 min. after inj.” value ([6]; AMI patients, N = 6, 50 mg i.v., placebo 644 ± 815) was 93 ± 89 and the “mean total VES ± SD, control hour” value ([6]; AMI patients, N = 6, before injection (baseline)) was 372 ± 148. The “mean total VES ± SD, 0 - 60 min. after inj.” value ([6]; not AMI patients, N = 2, 50 mg i.v., placebo 643 ± 290) was 251 ± 85, the “mean total VES ± SD, 61 - 120 min. after inj.” value ([6]; not AMI patients, N = 2, 50 mg i.v., placebo 695 ± 240) was 348 ± 28 and the “mean total VES ± SD, control hour” value ([6]; not AMI patients, N = 2, before injection (baseline)) was 321 ± 18. The “side effects during treatment of cardiac arrhythmia” value ([7]; human, in vivo) was “lack of side effects”, the “side effects in patients” value ([7]; human, in vivo, iv) was “without producing side effects” and the “inhibition of ventricular arrhythmia in patients with myocardial infarction” value ([7]; intravenous injection 10-50 mg) was “inhibit ventricular arrhythmia in patients with myocardial infarction”. The “toxic effects of the active doses” value ([4]; in vivo) was “In contrast to metylperone and FG 5226 the active doses of the known antiarrhythmic drugs produced various toxic effects”, the tranquilizing effect [8] was “has a tranquilizing effect” and the aconitine inhibitory effect [9] was “no aconitine inhibitory effect”. For the same molecule, the potentiation of catecholamines [5] was “does not potentiate the cardiac effects of catecholamines”.

In the case of `NC(=O)OC1CCN(CCCC(=O)c2ccc(F)cc2)C2CCCCC12` (stereo not shown) [L 7810], the “antagonism of ouabain-induced ventricular tachycardia and fibrillation” value [10] is given as 0.3 to 3 mg/kg, the “inhibition of arrhythmia induced by aconitine” value [11] is given as “inhibit arrhythmia induced by aconitine” and the “antiarrhythmic properties / activity” value [3] is given as “exert antiarrhythmic properties”.
